Test results reported in ChEMBL document CHEMBL4339185 (Eur J Med Chem, 2019).
≈ marks a conversion by molar mass, not a printed value.

What was measured:
Staphylococcus aureus [1] = assay: Antimicrobial activity against methicillin-resistant Staphylococcus aureus incubated for 18 hrs by serial microdilution method; assay type: functional
Staphylococcus aureus [2] = assay: Antimicrobial activity against Staphylococcus aureus ATCC 6538 incubated for 18 hrs by serial microdilution method; assay type: functional; settings: ATCC 6538, 18 h
Staphylococcus aureus [3] = assay: Antimicrobial activity against MLSB-resistant Staphylococcus aureus incubated for 18 hrs by serial microdilution method; assay type: functional
[4] = system: Staphylococcus epidermidis; assay: Antimicrobial activity against Staphylococcus epidermidis ATCC 12228 incubated for 18 hrs by serial microdilution method; assay type: functional; settings: ATCC 12228, 18 h
[5] = system: Staphylococcus epidermidis; assay: Antimicrobial activity against Staphylococcus epidermidis ATCC 49134 incubated for 18 hrs by serial microdilution method; assay type: functional; settings: ATCC 49134, 18 h
Enterococcus faecalis = assay: Antimicrobial activity against Enterococcus faecalis ATCC 29212 incubated for 18 hrs by serial microdilution method; assay type: functional; settings: ATCC 29212, 18 h
Escherichia coli = assay: Antimicrobial activity against Escherichia coli ATCC 25922 incubated for 18 hrs by serial microdilution method; assay type: functional; settings: ATCC 25922, 18 h
[6] = Solubility of the compound in water at pH 7 by UV-vis spectrophotometric analysis; assay type: physicochemical
[7] = Lipophilicity, log P of the compound in octanol and water incubated for 1 h under shaking condition; assay type: physicochemical

## CO[C@H]1/C=C/O[C@@]2(C)Oc3c(C)c(O)c4c(O)c(c(CNC5CCN(CC(=O)O)CC5)c(O)c4c3C2=O)NC(=O)/C(C)=C\C=C\[C@H](C)[C@H](O)[C@@H](C)[C@@H](O)[C@@H](C)[C@H](OC(C)=O)[C@@H]1C
Staphylococcus aureus [1]
  MIC: 0.25 µg/mL (≈ 0.288 µM)
Staphylococcus aureus [2]
  MIC: 0.25 µg/mL (≈ 0.288 µM)
Staphylococcus aureus [3]
  MIC: 0.5 µg/mL (≈ 0.576 µM)
[4]
  MIC: 0.0625 µg/mL (≈ 0.072 µM)
[5]
  MIC: 0.0625 µg/mL (≈ 0.072 µM)
Enterococcus faecalis
  MIC: > 8 µg/mL
Escherichia coli
  MIC: > 8 µg/mL
[6]
  solubility: > 100000 µg/mL
[7]
  logP at 1 h: -1.5

## CO[C@H]1/C=C/O[C@@]2(C)Oc3c(C)c(O)c4c(O)c(c(/C=N/NC(C)(C)C)c(O)c4c3C2=O)NC(=O)/C(C)=C\C=C\[C@H](C)[C@H](O)[C@@H](C)[C@@H](O)[C@@H](C)[C@H](OC(C)=O)[C@@H]1C
Staphylococcus aureus [1]
  MIC: 1 µg/mL (≈ 1.26 µM)
Staphylococcus aureus [2]
  MIC: 1 µg/mL (≈ 1.26 µM)
Staphylococcus aureus [3]
  MIC: 2 µg/mL (≈ 2.51 µM)
[4]
  MIC: 1 µg/mL (≈ 1.26 µM)
[5]
  MIC: 0.5 µg/mL (≈ 0.628 µM)
Enterococcus faecalis
  MIC: 8 µg/mL (≈ 10.1 µM)
Escherichia coli
  MIC: > 8 µg/mL
[6]
  solubility: < 50 µg/mL
[7]
  logP at 1 h: 2.43

## CO[C@H]1/C=C/O[C@@]2(C)Oc3c(C)c(O)c4c(O)c(c(CNC5CCCNC5=O)c(O)c4c3C2=O)NC(=O)/C(C)=C\C=C\[C@H](C)[C@H](O)[C@@H](C)[C@@H](O)[C@@H](C)[C@H](OC(C)=O)[C@@H]1C (some centres not stated)
Staphylococcus aureus [1]
  MIC: 0.25 µg/mL (≈ 0.303 µM)
Staphylococcus aureus [2]
  MIC: 0.5 µg/mL (≈ 0.607 µM)
Staphylococcus aureus [3]
  MIC: 0.5 µg/mL (≈ 0.607 µM)
[4]
  MIC: 0.25 µg/mL (≈ 0.303 µM)
[5]
  MIC: 0.25 µg/mL (≈ 0.303 µM)
Enterococcus faecalis
  MIC: > 8 µg/mL
Escherichia coli
  MIC: > 8 µg/mL
[6]
  solubility: 210 µg/mL (≈ 255 µM)
[7]
  logP at 1 h: 1.14

## CO[C@H]1/C=C/O[C@@]2(C)Oc3c(C)c(O)c4c(O)c(c(CNC5CCN(S(C)(=O)=O)CC5)c(O)c4c3C2=O)NC(=O)/C(C)=C\C=C\[C@H](C)[C@H](O)[C@@H](C)[C@@H](O)[C@@H](C)[C@H](OC(C)=O)[C@@H]1C
Staphylococcus aureus [1]
  MIC: 1 µg/mL (≈ 1.13 µM)
Staphylococcus aureus [2]
  MIC: 1 µg/mL (≈ 1.13 µM)
Staphylococcus aureus [3]
  MIC: 0.5 µg/mL (≈ 0.563 µM)
[4]
  MIC: 0.5 µg/mL (≈ 0.563 µM)
[5]
  MIC: 0.25 µg/mL (≈ 0.282 µM)
Enterococcus faecalis
  MIC: > 8 µg/mL
Escherichia coli
  MIC: > 8 µg/mL
[6]
  solubility: < 50 µg/mL
[7]
  logP at 1 h: 2.34

## CO[C@H]1/C=C/O[C@@]2(C)Oc3c(C)c(O)c4c(O)c(c(CNC5CCN(C(=O)OC(C)(C)C)CC5)c(O)c4c3C2=O)NC(=O)/C(C)=C\C=C\[C@H](C)[C@H](O)[C@@H](C)[C@@H](O)[C@@H](C)[C@H](OC(C)=O)[C@@H]1C
Staphylococcus aureus [1]
  MIC: 0.5 µg/mL (≈ 0.549 µM)
Staphylococcus aureus [2]
  MIC: 0.5 µg/mL (≈ 0.549 µM)
Staphylococcus aureus [3]
  MIC: 0.5 µg/mL (≈ 0.549 µM)
[4]
  MIC: 0.25 µg/mL (≈ 0.275 µM)
[5]
  MIC: 0.25 µg/mL (≈ 0.275 µM)
Enterococcus faecalis
  MIC: 4 µg/mL (≈ 4.4 µM)
Escherichia coli
  MIC: > 8 µg/mL
[6]
  solubility: < 50 µg/mL
[7]
  logP at 1 h: 2.8

## CO[C@H]1/C=C/O[C@@]2(C)Oc3c(C)c(O)c4c(O)c(c(/C=N/NC5CCCCC5)c(O)c4c3C2=O)NC(=O)/C(C)=C\C=C\[C@H](C)[C@H](O)[C@@H](C)[C@@H](O)[C@@H](C)[C@H](OC(C)=O)[C@@H]1C
Staphylococcus aureus [1]
  MIC: 0.5 µg/mL (≈ 0.608 µM)
Staphylococcus aureus [2]
  MIC: 0.5 µg/mL (≈ 0.608 µM)
Staphylococcus aureus [3]
  MIC: 0.5 µg/mL (≈ 0.608 µM)
[4]
  MIC: 0.25 µg/mL (≈ 0.304 µM)
[5]
  MIC: 0.25 µg/mL (≈ 0.304 µM)
Enterococcus faecalis
  MIC: 1 µg/mL (≈ 1.22 µM)
Escherichia coli
  MIC: > 8 µg/mL
[6]
  solubility: < 50 µg/mL
[7]
  logP at 1 h: 2.1

## CO[C@H]1/C=C/O[C@@]2(C)Oc3c(C)c(O)c4c(O)c(c(CN5CCN(c6ncccn6)CC5)c(O)c4c3C2=O)NC(=O)/C(C)=C\C=C\[C@H](C)[C@H](O)[C@@H](C)[C@@H](O)[C@@H](C)[C@H](OC(C)=O)[C@@H]1C
Staphylococcus aureus [1]
  MIC: 1 µg/mL (≈ 1.14 µM)
Staphylococcus aureus [2]
  MIC: 1 µg/mL (≈ 1.14 µM)
Staphylococcus aureus [3]
  MIC: 2 µg/mL (≈ 2.29 µM)
[4]
  MIC: 0.25 µg/mL (≈ 0.286 µM)
[5]
  MIC: 0.25 µg/mL (≈ 0.286 µM)
Enterococcus faecalis
  MIC: > 8 µg/mL
Escherichia coli
  MIC: > 8 µg/mL
[6]
  solubility: 50 µg/mL (≈ 57.2 µM)
[7]
  logP at 1 h: 2.02

## CO[C@H]1/C=C/O[C@@]2(C)Oc3c(C)c(O)c4c(O)c(c(/C=N/Nc5ccnc6cc(Cl)ccc56)c(O)c4c3C2=O)NC(=O)/C(C)=C\C=C\[C@H](C)[C@H](O)[C@@H](C)[C@@H](O)[C@@H](C)[C@H](OC(C)=O)[C@@H]1C
Staphylococcus aureus [1]
  MIC: 0.25 µg/mL (≈ 0.277 µM)
Staphylococcus aureus [2]
  MIC: 0.25 µg/mL (≈ 0.277 µM)
Staphylococcus aureus [3]
  MIC: 0.125 µg/mL (≈ 0.139 µM)
[4]
  MIC: 0.125 µg/mL (≈ 0.139 µM)
[5]
  MIC: 0.125 µg/mL (≈ 0.139 µM)
Enterococcus faecalis
  MIC: 8 µg/mL (≈ 8.87 µM)
Escherichia coli
  MIC: > 8 µg/mL
[6]
  solubility: < 300 µg/mL
[7]
  logP at 1 h: 2.1
